Data: patent publication US20230233690A1, “ANDROGEN RECEPTOR PROTEIN DEGRADERS” (THE REGENTS OF THE UNIVERSITY OF MICHIGAN, priority 2020, published 2023)

Target: T1, AR protein (Homo sapiens, UniProt P10275)
T1 construct: endogenous in cells; host or cells: VCaP
T1 sequence (P10275 1-920): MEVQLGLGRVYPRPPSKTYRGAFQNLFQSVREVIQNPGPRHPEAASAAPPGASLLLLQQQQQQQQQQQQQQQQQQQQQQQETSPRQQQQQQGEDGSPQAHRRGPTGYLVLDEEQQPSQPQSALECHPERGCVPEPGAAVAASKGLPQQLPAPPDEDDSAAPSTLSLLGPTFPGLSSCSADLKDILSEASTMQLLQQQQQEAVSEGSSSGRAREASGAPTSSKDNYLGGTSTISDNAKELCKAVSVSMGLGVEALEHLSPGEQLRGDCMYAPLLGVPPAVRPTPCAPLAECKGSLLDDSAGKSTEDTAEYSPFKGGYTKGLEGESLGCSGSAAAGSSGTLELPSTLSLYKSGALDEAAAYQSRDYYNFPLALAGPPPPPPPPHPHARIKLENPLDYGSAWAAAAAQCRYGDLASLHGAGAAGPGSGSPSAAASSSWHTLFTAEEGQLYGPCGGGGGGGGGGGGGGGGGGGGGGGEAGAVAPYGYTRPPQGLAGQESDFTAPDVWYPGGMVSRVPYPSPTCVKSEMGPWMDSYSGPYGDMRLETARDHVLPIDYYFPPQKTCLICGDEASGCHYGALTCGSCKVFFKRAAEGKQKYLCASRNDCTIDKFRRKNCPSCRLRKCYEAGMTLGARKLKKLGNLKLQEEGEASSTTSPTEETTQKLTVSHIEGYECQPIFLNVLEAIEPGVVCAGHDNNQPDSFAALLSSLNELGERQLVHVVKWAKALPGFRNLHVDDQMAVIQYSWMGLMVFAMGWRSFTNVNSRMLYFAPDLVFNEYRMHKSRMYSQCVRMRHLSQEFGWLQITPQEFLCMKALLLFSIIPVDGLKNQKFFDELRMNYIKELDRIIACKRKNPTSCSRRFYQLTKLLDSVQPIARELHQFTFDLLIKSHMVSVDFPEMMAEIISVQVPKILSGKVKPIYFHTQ
Test: Western blotting of AR protein degradation in VCaP cells
Assay type: cell-based
Details: for AR protein degradation VCap 10 nM / AR protein degradation VCap 100 nM: 24 hr treatment
Protocol: The treated cells were lysed with RIPA buffer. […] GAPDH was used as a loading control.
Bands were quantified with ImageJ software. The relative numbers of each band obtained from normalization with its corresponding GAPDH level were compared with Prism 8 software. The DC50 values were produced from Prism 8, and the DC90 values were calculated with an equation=Bottom+(Top−Bottom)/(1+10^((Log EC50−X)*HillSlope) based on DC50 and Hillslope values.

## N#Cc1ccc(N[C@H]2CC[C@H](NC(=O)c3ccc(N4CCN(C5CN(c6ccc7c(c6)C(=O)N(C6CCC(=O)NC6=O)C7=O)C5)CC4)cc3)CC2)cc1Cl (stereo partly drawn) [Cpd. No. 28, N-((1r,4r)-4-((3-chloro-4-cyanophenyl)amino)cyclohexyl)-4-(4-(1-(2-(2,6-dioxopiperidin-3-yl)-1,3-dioxoisoindolin-5-yl)azetidin-3-yl)piperazin-1-yl)benzamide]
  AR protein degradation VCap 10 nM: A (>90% degradation (24 hr treatment))
  AR protein degradation VCap 100 nM: A (>90% degradation (24 hr treatment))

## N#Cc1ccc(O[C@H]2CC[C@H](NC(=O)c3ccc(NCCCCCCCCCCCNc4ccc5c(c4)C(=O)N(C4CCC(=O)NC4=O)C5=O)cc3)CC2)cc1Cl (stereo partly drawn) [compound 217, N-((1r,4r)-4-(3-chloro-4-cyanophenoxy)cyclohexyl)-4-((11-((2-(2,6-dioxopiperidin-3-yl)-1,3-dioxoisoindolin-5-yl)amino)undecyl)amino)benzamide]
0.001 μM
  % AR protein degradation in VCaP Cells: 7%
0.01 μM
  % AR protein degradation in VCaP Cells: 17%
0.1 μM
  % AR protein degradation in VCaP Cells: 39%
1 μM
  % AR protein degradation in VCaP Cells: 35%

## C[C@H]1C[C@@H](NC(=O)c2ccc(N3CCN(CC4CCN(c5ccc6c(c5)C(=O)N(C5CCC(=O)NC5=O)C6=O)CC4)CC3)cc2)CC[C@@H]1Oc1ccc(C#N)c(Cl)c1 (stereo partly drawn) [Cpd. No. 23]
  AR protein degradation VCap 10 nM: A (>90% degradation (24 hr treatment))
  AR protein degradation VCap 100 nM: A (>90% degradation (24 hr treatment))

## C[C@H]1C[C@@H](NC(=O)c2ccc(N3CCN(C4CCN(c5ccc6c(c5)C(=O)N(C5CCC(=O)NC5=O)C6=O)CC4)CC3)cc2)CC[C@@H]1Oc1ccc(C#N)c(Cl)c1 (stereo partly drawn) [compound 25]
  AR protein degradation VCap 10 nM: A (>90% degradation (24 hr treatment))
  AR protein degradation VCap 100 nM: A (>90% degradation (24 hr treatment))

## N#Cc1ccc(O[C@H]2CC[C@H](NC(=O)c3ccc(N4CCN(CCNc5ccc6c(c5)C(=O)N(C5CCC(=O)NC5=O)C6=O)CC4)cc3)CC2)cc1Cl (stereo partly drawn) [compound 218, N-((1r,4r)-4-(3-chloro-4-cyanophenoxy)cyclohexyl)-4-(4-(2-((2-(2,6-dioxopiperidin-3-yl)-1,3-dioxoisoindolin-5-yl)amino)ethyl)piperazin-1-yl)benzamide]
0.001 μM
  % AR protein degradation in VCaP Cells: 6%
0.01 μM
  % AR protein degradation in VCaP Cells: 32%
0.1 μM
  % AR protein degradation in VCaP Cells: 39%
1 μM
  % AR protein degradation in VCaP Cells: 21%

## N#Cc1ccc(O[C@H]2CC[C@H](NC(=O)c3ccc(NCCCCCCCCCNc4ccc5c(c4)C(=O)N(C4CCC(=O)NC4=O)C5=O)cc3)CC2)cc1Cl (stereo partly drawn) [compound 215, N-((1r,4r)-4-(3-chloro-4-cyanophenoxy)cyclohexyl)-4-((9-((2-(2,6-dioxopiperidin-3-yl)-1,3-dioxoisoindolin-5-yl)amino)nonyl)amino)benzamide]
0.001 μM
  % AR protein degradation in VCaP Cells: 6%
0.01 μM
  % AR protein degradation in VCaP Cells: 35%
0.1 μM
  % AR protein degradation in VCaP Cells: 58%
1 μM
  % AR protein degradation in VCaP Cells: 53%

## N#Cc1ccc(O[C@H]2CC[C@H](NC(=O)c3ccc(N4CCC(N5CCN(c6ccc7c(c6)C(=O)N(C6CCC(=O)NC6=O)C7=O)CC5)CC4)cc3)C2)cc1Cl (stereo partly drawn) [compound 226, N-((1S,3S)-3-(3-chloro-4-cyanophenoxy)cyclopentyl)-4-(4-(4-(2-(2,6-dioxopiperidin-3-yl)-1,3-dioxoisoindolin-5-yl)piperazin-1-yl)piperidin-1-yl)benzamide]
0.001 μM
  % AR protein degradation in VCaP Cells: 2%
0.01 μM
  % AR protein degradation in VCaP Cells: 3%
0.1 μM
  % AR protein degradation in VCaP Cells: 23%
1 μM
  % AR protein degradation in VCaP Cells: 18%

## N#Cc1ccc(O[C@H]2CC[C@H](NC(=O)c3ccc(N4CCC5(CC4)CCN(C4CCN(c6ccc7c(c6)C(=O)N(C6CCC(=O)NC6=O)C7=O)CC4)CC5)cc3)CC2)cc1Cl (stereo partly drawn) [compound 7]
  AR protein degradation VCap 10 nM: B (>50% degradation but <90% (24 hr treatment))
  AR protein degradation VCap 100 nM: C (>10% degradation but <50% (24 hr treatment))

## N#Cc1ccc(O[C@H]2CC[C@H](NC(=O)c3ccc(NCCCCCNc4ccc5c(c4)C(=O)N(C4CCC(=O)NC4=O)C5=O)cc3)CC2)cc1Cl (stereo partly drawn) [compound 211, N-((1r,4r)-4-(3-chloro-4-cyanophenoxy)cyclohexyl)-4-((5-((2-(2,6-dioxopiperidin-3-yl)-1,3-dioxoisoindolin-5-yl)amino)pentyl)amino)benzamide]
0.001 μM
  % AR protein degradation in VCaP Cells: 59%
0.01 μM
  % AR protein degradation in VCaP Cells: 82%
0.1 μM
  % AR protein degradation in VCaP Cells: 82%
1 μM
  % AR protein degradation in VCaP Cells: 79%

## N#Cc1ccc(O[C@H]2CC[C@H](Nc3ccc(C(=O)N4CCN(C5CN(c6ccc7c(c6)C(=O)N(C6CCC(=O)NC6=O)C7=O)C5)CC4)cc3)CC2)cc1Cl (stereo partly drawn) [Cpd. No. 17, 2-chloro-4-(((1r,4r)-4-((4-(4-(1-(2-(2,6-dioxopiperidin-3-yl)-1,3-dioxoisoindolin-5-yl)azetidin-3-yl)piperazinecarbonyl)phenyl)amino)cyclohexyl)oxy)benzonitrile]
  AR protein degradation VCap 10 nM: B (>50% degradation but <90% (24 hr treatment))
  AR protein degradation VCap 100 nM: B (>50% degradation but <90% (24 hr treatment))

## N#Cc1ccc(O[C@H]2CC[C@H](Nc3ccc(C(=O)N4CCN(C5CCN(c6ccc7c(c6)C(=O)N(C6CCC(=O)NC6=O)C7=O)CC5)CC4)cc3)CC2)cc1Cl (stereo partly drawn) [Cpd. No. 12]
  AR protein degradation VCap 10 nM: C (>10% degradation but <50% (24 hr treatment))
  AR protein degradation VCap 100 nM: A (>90% degradation (24 hr treatment))

## N#Cc1ccc(O[C@H]2CC[C@H](NC(=O)c3ccc(N4CCN(CCCCNc5ccc6c(c5)C(=O)N(C5CCC(=O)NC5=O)C6=O)CC4)cc3)CC2)cc1Cl (stereo partly drawn) [compound 220, N-((1r,4r)-4-(3-chloro-4-cyanophenoxy)cyclohexyl)-4-(4-(4-((2-(2,6-dioxopiperidin-3-yl)-1,3-dioxoisoindolin-5-yl)amino)butyl)piperazin-1-yl)benzamide]
0.001 μM
  % AR protein degradation in VCaP Cells: 18%
0.01 μM
  % AR protein degradation in VCaP Cells: 60%
0.1 μM
  % AR protein degradation in VCaP Cells: 80%
1 μM
  % AR protein degradation in VCaP Cells: 62%

## CN(c1ccc(C#N)c(Cl)c1)[C@H]1CC[C@H](NC(=O)c2ccc(N3CCN(CC4CCN(c5ccc6c(c5)C(=O)N(C5CCC(=O)NC5=O)C6=O)CC4)CC3)cc2)CC1 (stereo partly drawn) [compound 29]
  AR protein degradation VCap 10 nM: A (>90% degradation (24 hr treatment))
  AR protein degradation VCap 100 nM: A (>90% degradation (24 hr treatment))

## N#Cc1ccc(O[C@H]2CC[C@H](NC(=O)c3ccc(N4CCN(C5CCN(c6ccc7c(c6)C(=O)N(C6CCC(=O)NC6=O)C7=O)CC5)CC4)cc3)CC2)cc1Cl (stereo partly drawn) [Cpd. No. 21, N-((1r,4r)-4-(3-chloro-4-cyanophenoxy)cyclohexyl)-4-(4-(1-(2-(2,6-dioxopiperidin-3-yl)-1,3-dioxoisoindolin-5-yl)piperidin-4-yl)piperazin-1-yl)benzamide]
  AR protein degradation VCap 10 nM: A (>90% degradation (24 hr treatment))
  AR protein degradation VCap 100 nM: A (>90% degradation (24 hr treatment))

## N#Cc1ccc(O[C@H]2CC[C@H](Nc3ccc(C(=O)N4CCN(CC5CCN(c6ccc7c(c6)C(=O)N(C6CCC(=O)NC6=O)C7=O)CC5)CC4)cc3)CC2)cc1Cl (stereo partly drawn) [compound 13]
  AR protein degradation VCap 10 nM: C (>10% degradation but <50% (24 hr treatment))
  AR protein degradation VCap 100 nM: B (>50% degradation but <90% (24 hr treatment))
